Assay results: PubChem BioAssay AID192 (DTP/NCI, 2004)
Several values for one entry are separate records, joined by “and”; a condition that tells them apart may be missing. Equal values may be shown once. Toxic doses and inconclusive results are not listed.

Test system: BDF1 mice, B16 melanoma ip, median survival T/C
Assay: NCI In Vivo Anticancer Drug Screen. Data for tumor model B16 Melanoma (intraperitoneal) in B6D2F1 (BDF1) mice
Conditions: endpoint: median survival time, higher = longer survival
Summary of the method: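 Values are ratios of treated (T) to vehicle-control (C) measurements of survival or tumor size in tumor-bearing mice.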

[1] = dose: 12.5 mg/kg/injection, schedule: Q01DX009 (ip), vehicle: Klucel (hydroxypropylcellulose) (HPC)
[2] = dose: 25.0 mg/kg/injection, schedule: Q01DX009 (ip), vehicle: Klucel (hydroxypropylcellulose) (HPC)
[3] = dose: 6.25 mg/kg/injection, schedule: Q01DX009 (ip), vehicle: saline
[4] = dose: 200.0 mg/kg/injection, schedule: Q01DX009 (ip), vehicle: Klucel (hydroxypropylcellulose) (HPC)
[5] = dose: 50.0 mg/kg/injection, schedule: Q01DX009 (ip), vehicle: saline with Tween-80
[6] = dose: 100.0 mg/kg/injection, schedule: Q01DX009 (ip), vehicle: saline with Tween-80
[7] = dose: 200.0 mg/kg/injection, schedule: Q01DX009 (ip), vehicle: saline with Tween-80
[8] = dose: 50.0 mg/kg/injection, schedule: Q01DX009 (ip), vehicle: Klucel (hydroxypropylcellulose) (HPC)

`CCOC(=O)c1c(N)sc2c1CCN(C)C2` was tested, and the T/C (dose: 6.25 mg/kg/injection, schedule: Q04DX003 (ip), vehicle: Klucel (hydroxypropylcellulose) (HPC)) was 95 % of control, the T/C [1] was 100 % of control and the T/C (dose: 12.5 mg/kg/injection, schedule: Q04DX003 (ip), vehicle: Klucel (hydroxypropylcellulose) (HPC)) was 102 % of control. For the same compound, the T/C [2] was 102 % of control, the T/C (dose: 25.0 mg/kg/injection, schedule: Q04DX003 (ip), vehicle: Klucel (hydroxypropylcellulose) (HPC)) was 89 % of control and the T/C (dose: 35.0 mg/kg/injection, schedule: Q04DX003 (ip), vehicle: Klucel (hydroxypropylcellulose) (HPC)) was 105 % of control. For the same compound, the T/C (dose: 55.0 mg/kg/injection, schedule: Q04DX003 (ip), vehicle: Klucel (hydroxypropylcellulose) (HPC)) was 121 % of control.
In the case of `O=NN(CCBr)C(=O)NC1CCCCC1`, the T/C (dose: 100.0 mg/kg/injection, schedule: Q01DX009 (ip), vehicle: gum acacia) is reported as 105 % of control, the T/C (dose: 200.0 mg/kg/injection, schedule: Q01DX009 (ip), vehicle: gum acacia) is reported as 102 % of control and the T/C (dose: 400.0 mg/kg/injection, schedule: Q01DX009 (ip), vehicle: gum acacia) is reported as 90 % of control.
`ClC1CCC[N-]C1.ClC1CCC[N-]C1.[Cl][Pt+2][Cl]` (stereo unspecified) was tested, and the T/C (dose: 0.78 mg/kg/injection, schedule: Q01DX009 (ip), vehicle: saline) was 100 % of control, the T/C (dose: 1.56 mg/kg/injection, schedule: Q01DX009 (ip), vehicle: saline) was 95 % of control and the T/C (dose: 3.13 mg/kg/injection, schedule: Q01DX009 (ip), vehicle: saline) was 96 % of control. The T/C [3] was 100 % of control and the T/C (dose: 12.5 mg/kg/injection, schedule: Q01DX009 (ip), vehicle: saline) was 95 % of control.
With `CCOC(=O)NC(C(=O)OC)C(=O)OC` the T/C (dose: 100.0 mg/kg/injection, schedule: Q04DX003 (ip), vehicle: Klucel (hydroxypropylcellulose) (HPC)) was 95 % of control, the T/C [4] was 93 % of control and the T/C (dose: 200.0 mg/kg/injection, schedule: Q04DX003 (ip), vehicle: Klucel (hydroxypropylcellulose) (HPC)) was 97 % of control. The T/C (dose: 400.0 mg/kg/injection, schedule: Q01DX009 (ip), vehicle: Klucel (hydroxypropylcellulose) (HPC)) was 87 % of control and the T/C (dose: 400.0 mg/kg/injection, schedule: Q04DX003 (ip), vehicle: Klucel (hydroxypropylcellulose) (HPC)) was 90 % of control.
`CN(C)c1c(-c2ccccc2)cc(-c2ccccc2)[nH]c1=O` was tested, and the T/C [5] was 92 % of control and the T/C [6] was 86 % of control.
With `COc1cccc2c1C(=O)c1c(O)c3c(c(O)c1C2=O)C[C@@](O)(/C(C)=N/NC(=O)c1ccc(Cl)cc1)C[C@@H]3OC1CC(N)C(O)C(C)O1` (stereo partly specified) the T/C (dose: 1.0 mg/kg/injection, schedule: Q01DX009 (ip), vehicle: suspension in saline) was 155 % of control, the T/C (dose: 2.0 mg/kg/injection, schedule: Q01DX009 (ip), vehicle: suspension in saline) was 188 % of control and the T/C (dose: 2.5 mg/kg/injection, schedule: Q01DX001 (ip), vehicle: saline with Tween-80) was 155 % of control. For the same compound, the T/C (dose: 2.5 mg/kg/injection, schedule: Q01DX001 (ip), vehicle: water) was 121 % of control, the T/C (dose: 4.0 mg/kg/injection, schedule: Q01DX009 (ip), vehicle: suspension in saline) was 193 % of control and the T/C (dose: 5.0 mg/kg/injection, schedule: Q01DX001 (ip), vehicle: saline with Tween-80) was 204 % of control. For the same compound, the T/C (dose: 5.0 mg/kg/injection, schedule: Q01DX001 (ip), vehicle: water) was 279 % of control, the T/C (dose: 8.0 mg/kg/injection, schedule: Q01DX009 (ip), vehicle: suspension in saline) was 322 % of control and the T/C (dose: 10.0 mg/kg/injection, schedule: Q01DX001 (ip), vehicle: saline with Tween-80) was 196 % of control. The T/C (dose: 10.0 mg/kg/injection, schedule: Q01DX001 (ip), vehicle: water) was 154 % of control and 300 % of control, the T/C (dose: 20.0 mg/kg/injection, schedule: Q01DX001 (ip), vehicle: saline with Tween-80) was 280 % of control and the T/C (dose: 20.0 mg/kg/injection, schedule: Q01DX001 (ip), vehicle: water) was 235 % of control. The T/C (dose: 40.0 mg/kg/injection, schedule: Q01DX001 (ip), vehicle: saline with Tween-80) was 205 % of control.
`Nc1ncnc2nc[nH]c12` was tested, and the T/C (dose: 32.0 mg/kg/injection, schedule: Q01DX009 (ip), vehicle: Klucel (hydroxypropylcellulose) (HPC)) was 97 % of control, the T/C (dose: 64.0 mg/kg/injection, schedule: Q01DX009 (ip), vehicle: Klucel (hydroxypropylcellulose) (HPC)) was 98 % of control and the T/C (dose: 64.0 mg/kg/injection, schedule: Q01DX009 (ip), vehicle: saline with Tween-80) was 98 % of control. For the same compound, the T/C (dose: 128.0 mg/kg/injection, schedule: Q01DX009 (ip), vehicle: Klucel (hydroxypropylcellulose) (HPC)) was 89 % of control.
For `Cc1ccc([N+](=O)[O-])c2ccccc12`, the T/C [6] was 97 % of control and the T/C [7] was 88 % of control.
`N=C(N)SCc1ccc(CSC(=N)N)s1` was tested, and the T/C (dose: 7.5 mg/kg/injection, schedule: Q01DX009 (ip), vehicle: saline) was 101 % of control, the T/C (dose: 15.0 mg/kg/injection, schedule: Q01DX009 (ip), vehicle: saline) was 99 % of control and the T/C (dose: 30.0 mg/kg/injection, schedule: Q01DX009 (ip), vehicle: saline) was 104 % of control.
With `Cc1ccccc1-n1c(C)nc2ccccc2c1=O` the T/C [1] was 92 % of control and 108 % of control, the T/C [2] was 92 % of control and the T/C [8] was 88 % of control and 90 % of control. The T/C (dose: 100.0 mg/kg/injection, schedule: Q01DX009 (ip), vehicle: Klucel (hydroxypropylcellulose) (HPC)) was 88 % of control and the T/C [4] was 90 % of control.
`OC1(c2ccccc2)c2ccc(Br)cc2-c2cc(Br)ccc21` was tested, and the T/C [6] was 92 % of control and the T/C [7] was 88 % of control.
With `O=c1cnn(C2OC(CO)C(O)C2O)c(=S)[nH]1` (stereo unspecified) the T/C (dose: 100.0 mg/kg/injection, schedule: Q04DX003 (ip), vehicle: saline with Tween-80) was 93 % of control, the T/C (dose: 200.0 mg/kg/injection, schedule: Q04DX003 (ip), vehicle: saline with Tween-80) was 95 % of control and the T/C (dose: 400.0 mg/kg/injection, schedule: Q04DX003 (ip), vehicle: saline with Tween-80) was 88 % of control.
For `CCCCCCCC/C=C\CCCCCCCCN1CC(C(=O)[O][Pb]([CH2]C)([CH2]C)[CH2]C)CC1=O` (stereo unspecified), the T/C (dose: 0.75 mg/kg/injection, schedule: Q01DX009 (ip), vehicle: saline with Tween-80) was 107 % of control, the T/C (dose: 1.5 mg/kg/injection, schedule: Q01DX009 (ip), vehicle: saline with Tween-80) was 106 % of control and the T/C (dose: 3.0 mg/kg/injection, schedule: Q01DX009 (ip), vehicle: saline with Tween-80) was 102 % of control. The T/C (dose: 6.0 mg/kg/injection, schedule: Q01DX009 (ip), vehicle: saline with Tween-80) was 107 % of control.
With `CCOC(=O)c1ccc(NS(=O)c2ccccc2)cc1` (stereo unspecified) the T/C [5] was 105 % of control and the T/C [6] was 91 % of control.
For `c1nnc(NCNc2nncs2)s1`, the T/C [3] was 108 % of control, the T/C (dose: 25.0 mg/kg/injection, schedule: Q01DX009 (ip), vehicle: saline) was 122 % of control and the T/C (dose: 50.0 mg/kg/injection, schedule: Q04DX003 (ip), vehicle: saline) was 109 % of control. The T/C (dose: 100.0 mg/kg/injection, schedule: Q04DX003 (ip), vehicle: saline) was 119 % of control.
With `CCc1ccccc1N1CCN(C(=O)c2cc(OC)c(OC)c(OC)c2)CC1` the T/C [1] was 88 % of control, the T/C [2] was 94 % of control and the T/C [8] was 94 % of control.
With `CCCCCCCCCCNCCC(=O)O` the T/C (dose: 0.58 mg/kg/injection, schedule: Q01DX009 (ip), vehicle: saline) was 98 % of control, the T/C (dose: 1.1 mg/kg/injection, schedule: Q01DX009 (ip), vehicle: saline) was 96 % of control and the T/C (dose: 2.3 mg/kg/injection, schedule: Q01DX009 (ip), vehicle: saline) was 95 % of control. For the same compound, the T/C (dose: 37.5 mg/kg/injection, schedule: Q01DX009 (ip), vehicle: saline) was 102 % of control.
